From the supplement of paper PMC8967900

How the values were obtained:
Test in all cases: selective drug sensitivity score (sDSS, relative to normal bone marrow) (sDSS (score)); higher = more potent and effective on the cell line relative to normal bone marrow cells
Conditions in all cases: 72 h
[1] = system: DND-41
[2] = system: MOLT-16
[3] = system: REH
[4] = system: MOLT-4
[5] = system: SEM cells
[6] = system: PEER
[7] = system: ALL-PO
[8] = system: COG-LL-394h
[9] = system: COG-LL-355h
[10] = system: COG-LL-402h
[11] = system: TANOUE
[12] = system: RCH-ACV
[13] = system: TMD5
[14] = system: KASUMI-9
[15] = system: SUP-B15
[16] = system: RPMI-8402
[17] = system: NALM-16
[18] = system: P30-OHKUBO
[19] = system: CCRF-HSB2
[20] = system: MHH-CALL-3
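Note: ALL cell lines in 384-well plates, five doses spanning 10,000-fold, each plate scaled between vehicle and 100 µmol/L benzalkonium chloride controls, sDSS an adapted area-under-curve metric.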

SMILES	selective drug sensitivity score [1]	selective drug sensitivity score [2]	selective drug sensitivity score [3]	selective drug sensitivity score [4]	selective drug sensitivity score [5]	selective drug sensitivity score [6]	selective drug sensitivity score [7]	selective drug sensitivity score [8]	selective drug sensitivity score [9]	selective drug sensitivity score [10]	selective drug sensitivity score [11]	selective drug sensitivity score [12]	selective drug sensitivity score [13]	selective drug sensitivity score [14]	selective drug sensitivity score [15]	selective drug sensitivity score [16]	selective drug sensitivity score [17]	selective drug sensitivity score [18]	selective drug sensitivity score [19]	selective drug sensitivity score [20]
Cc1[nH]c2ccccc2c1CCNCc1ccc(/C=C/C(=O)NO)cc1 [Panobinostat] (top concentration 1000 nM)	5.04	9.04	0.44	2.94	3.94	4.34	6.14	2.84	4.84	14.6	-6.56	14.1	2.74	11.7	10.2	4.14	2.94	6.64	5.24	15.6
COc1ccc2[nH]cc(/C=C3\C(=O)Nc4ccc(NC(=O)CCN5CCCCC5)cc43)c2c1 (top concentration 50000 nM)	1.38	-2.32	-1.62	-1.12	2.18	2.18	5.18	0.18	0.28	1.18	-2.22	1.08	0.28	1.28	2.48	2.68	-2.42	0.38	6.68	-5.32
NC(=O)c1cccc2cn(-c3ccc(C4CCCNC4)cc3)nc12 (stereo not given) [Niraparib] (top concentration 10000 nM)	2.78	4.78	-0.02	3.58	2.98	-1.02	6.08	-2.02	4.68	8.48	-3.32	6.48	-1.72	5.78	17.2	1.98	-2.82	5.98	5.78	10.7
Cn1ncnc1[C@H]1c2n[nH]c(=O)c3cc(F)cc(c23)N[C@@H]1c1ccc(F)cc1 [Talazoparib] (top concentration 1000 nM)	3.48	19.1	-3.72	9.68	0.78	-3.72	4.78	-0.62	8.28	11.1	-4.92	10.7	-1.52	8.98	20.1	0.58	-2.82	9.68	7.68	20.3
CCC(C)n1ncn(-c2ccc(N3CCN(c4ccc(OCC5COC(Cn6cncn6)(c6ccc(Cl)cc6Cl)O5)cc4)CC3)cc2)c1=O (stereo not given) [Itraconazole] (top concentration 5000 nM)	6.98	2.38	-4.32	-1.92	-2.32	0.88	1.88	1.88	-4.22	-2.12	-2.92	5.48	-2.32	-4.12	1.18	0.98	-4.32	-2.62	2.08	-4.32
CO[C@@H](C)Cn1c(=O)n(C)c2cnc3ccc(-c4cncc(C(C)(C)O)c4)cc3c21 (top concentration 2500 nM)	3.18	11.9	6.78	3.38	5.08	3.38	4.88	-1.82	3.88	5.48	-5.12	17.6	-1.22	8.68	6.98	2.78	-0.52	8.18	5.58	-1.42
C=CCn1c(=O)c2cnc(Nc3ccc(N4CCN(C)CC4)cc3)nc2n1-c1cccc(C(C)(C)O)n1 [AZD1775] (top concentration 10000 nM)	11.5	17.5	13.5	14.6	14.1	12.2	7.04	5.54	7.24	10.2	-1.66	17.2	4.94	14.6	14.7	13.9	6.64	13.7	13.6	5.64
Cc1cc(Nc2cc(N3CCN(C)CC3)nc(/C=C/c3ccccc3)n2)n[nH]1 [ENMD-2076] (top concentration 10000 nM)	-0.46	7.04	4.14	5.74	15	7.14	10.3	1.44	4.04	4.24	-9.16	8.84	-0.26	9.24	4.74	1.44	-0.06	8.94	9.74	-2.76
O=C(O)c1ccc(-c2c[nH]c3ncc(-c4ccccc4)cc23)cc1C1CCCC1 (top concentration 10000 nM)	-1.24	3.66	-1.44	-0.94	7.56	2.56	5.86	-1.44	-0.44	-1.44	-1.44	5.76	1.66	0.66	-1.44	1.66	-1.44	3.36	3.16	3.76
COc1ccc(-c2nc(N3CCOCC3)c3sc(CN(C)c4ncc(C(=O)NO)cn4)cc3n2)cn1 [Fimepinostat (CUDC-907)] (top concentration 10000 nM)	4.68	8.68	2.78	5.28	8.68	1.98	6.48	3.28	7.28	10.9	-14.8	10.9	5.18	10.7	10.7	5.28	1.78	8.68	1.68	10.9
COc1ccc(C[C@H](NC(=O)[C@H](C)NC(=O)CN2CCOCC2)C(=O)N[C@@H](Cc2ccccc2)C(=O)[C@@]2(C)CO2)cc1 [ONX-0914] (top concentration 10000 nM)	11.7	2.5	-1.6	1.9	7.2	7.7	-3.9	6.2	8.7	2	-4.2	-4.4	0	-4.1	11.5	-3.1	-2	-1.8	9.9	7.2
CC(=O)Nc1ccc(C(=O)Nc2ccccc2N)cc1 [Tacedinaline] (top concentration 1000 nM)	-0.02	-0.02	-0.02	0.08	4.08	0.68	-0.02	-0.02	-0.02	0.38	-0.02	0.48	10.6	4.38	4.58	1.58	-0.02	2.58	2.98	1.58
CCN(CC)CCCC(C)Nc1c2ccc(Cl)cc2nc2ccc(OC)cc12 (stereo not given) [Mepacrine] (top concentration 50000 nM)	-5.1	-0.8	-3.3	-0.6	-0.1	-5.9	0.2	-5.7	-3.3	2.7	-10.8	-4.5	-7.6	-3.6	-1.1	-7.1	-7.9	-0.3	-4.8	-1.2
CN(C)c1cc2c(cc1Sc1nc3c(N)nccc3n1CCNCC(C)(C)C)OCO2 [CUDC-305] (top concentration 10000 nM)	5.92	4.42	3.32	6.02	5.12	0.42	7.52	-1.28	2.42	3.92	-6.68	4.02	1.82	0.22	3.22	1.42	1.12	1.72	8.12	-11.7
Cc1cn(-c2cc(NC(=O)c3ccc(C)c(Nc4nccc(-c5cccnc5)n4)c3)cc(C(F)(F)F)c2)cn1 [Nilotinib] (top concentration 10000 nM)	2.8	2.1	2.5	3.6	4.9	18.1	4.6	0.7	0.6	0	0	8.3	21	4.6	31.6	1.8	0	2.5	12.9	0.5
CCC/C=C/C=C/C(=O)O[C@H]1/C(=C/C(=O)OC)C[C@H]2C[C@H]([C@@H](C)O)OC(=O)C[C@H](O)C[C@@H]3C[C@H](OC(C)=O)C(C)(C)[C@](O)(C[C@@H]4C/C(=C/C(=O)OC)C[C@H](/C=C/C(C)(C)[C@]1(O)O2)O4)O3 [Bryostatin_1] (top concentration 100 nM)	0.88	-7.12	-7.12	-7.12	-7.12	-7.12	-7.12	-5.92	-7.12	-5.72	-6.82	-7.12	-7.12	25.1	15.6	-4.52	-6.92	20.2	20.4	-7.12
NC(=O)NO [Hydroxyurea] (top concentration 1000000 nM)	1.16	5.76	4.06	1.56	5.36	5.56	-4.54	-1.74	0.66	1.56	-3.94	9.66	-3.24	4.26	9.96	3.46	0.86	7.66	6.66	-4.44
CCNC(=O)c1noc(-c2cc(C(C)C)c(O)cc2O)c1-c1ccc(CN2CCOCC2)cc1 [Luminespib] (top concentration 1000 nM)	-2	4.6	-1.5	-1.1	2.1	-3.7	4.6	-5.2	6.5	4.1	-10.5	3.6	-6.3	-3	-1	-3.8	-2.9	-3.9	6.7	8.3
